Assay results: article PMC2765639 (PLoS Neglected Tropical Diseases, 2009)
Read-outs that look alike come from different tables or passages of the source.

Key:
[1] = system: L. major axenic amastigote-like population; test: L. major axenic amastigote-like alamar blue assay (pH 4.9); assay type: cell-based, Leishmania major; details: for EC50: Leishmania major; for growth inhibitory activity in axenic amastigote-like assay: pH 4.9
[2] = system: IMR-90; test: Mammalian cell line specificity assay (alamar blue); assay type: cell-based, human; details: Homo sapiens, IMR-90; 44–46 h, alamar blue; read-out: IMR90 EC50 (AVE±SD)
Experimental: (§1) Mammalian cells were cultured and maintained according to ATCC specifications (ATCC, Manassas, VA). Cell line drug susceptibility assays were performed in final volumes of 25 µL using our previously described 384-well microtiter plate format,[39]. […] Test and control compounds were added to individual wells as described above. Vehicle and positive controls were 1% DMSO and 10% DMSO, respectively (final well concentrations). Assay plates were incubated for 44–46 h at 37°C in the presence of 5% CO2 and growth inhibitory effects were determined as described above. Five µL of alamar blue reagent was added to each well and incubated for 2–4 h. Data were captured as described above.

[3] = system: PC-3; test: as above; assay type: cell-based, human; details: Homo sapiens, PC-3; 44–46 h, alamar blue; read-out: PC-3 EC50 (AVE±SD)
Experimental: as §1

[4] = system: HeLa; test: as above; assay type: cell-based, human; details: Homo sapiens, HeLa; 44–46 h, alamar blue; read-out: HeLa EC50 (AVE±SD)
Experimental: as §1

[5] = system: A549; test: as above; assay type: cell-based, human
Experimental: as §1

[6] = system: MDA-MB-231; test: as above; assay type: cell-based, human; details: Homo sapiens, MDA-MB-231; 44–46 h, alamar blue; read-out: MDA EC50 (AVE±SD)
Experimental: as §1

[7] = system: L. major promastigotes; test: L. major promastigote drug susceptibility assay (alamar blue, 384-well); assay type: cell-based, Leishmania major
Experimental: Promastigotes were grown in vented T75 tissue culture flasks and maintained at 28°C. Promastigote cultures were initiated at 10^5 parasites per mL and subcultured every 3–4 days. L. major promastigote counts were performed in duplicate using a hemocytometer and particle counter (Beckman Coulter, Fullerton, CA). For HTS assays, L. major promastigote cultures were harvested during exponential growth phase (∼2.0–3.0×10^7 parasites/mL) and were not maintained past passage 20.
The final test compound concentration was 10 µM with a constant DMSO concentration of 1% in each assay well.
The L. major promastigote drug susceptibility assay was performed in a final volume of 25 µL using our previously described 384-well microtiter plate format,[39]. For automated HTS procedures, L. major promastigotes (5,000 parasites/22 µL) in complete growth medium were seeded into each well of the microtiter plates using a MAPC2 bulk dispenser (Titertek, Huntsville, AL). Test and control compounds (3 µL) were added to individual wells using a Velocity 11 V-prep (Menlo Park, CA) liquid handling system, equipped with a 384-well dispensing head, followed by centrifugation at 50 g for 1 min. […] Assay plates were allowed to incubate for 44 h at 28°C in the presence of 5% CO2. Five µL of alamar blue reagent were added to each assay plate well and incubated for 4 h at 28°C with 5% CO2. Data were captured on a Molecular Devices SpectraMax M5 (excitation560; emission590). Individual assay plate Z-factors were derived from the vehicle and positive controls, and data from plates were used only if Z-factors were >0.5 [50].
The assays were performed in duplicate with a final 10-point concentration range spanning 0.01–5.00 µM.

[8] = system: L. major promastigotes; test: Flow cytometer-based growth inhibition and cytotoxicity assay; details: Leishmania major, 48 h, read-out: L. major promastigote EC50 (AVE±SD) Confirmation Flow Cytometry
[9] = Homo sapiens, A549, Table S1, PMLSC library samples, read-out: EC50 Ave ± SD, A549
[10] = 144 h, pH 4.9, read-out: L. major axenic amastigote-like EC50 (AVE±SD) Confirmation Alamar Blue
[11] = Leishmania major, read-out: EC50 Ave ± SD, Lm
[12] = Table S1, PMLSC library samples, read-out: EC50 Ave ± SD, A549
[13] = Table S1, PMLSC library samples, 10-point 0.01–5.00 µM, read-out: EC50 Ave ± SD, Lm

EC50 [5, 12] | EC50 [7, 13] | Structure (SMILES) | EC50 [5, 9] | EC50 [8] | EC50 [1, 10] | EC50 [7, 11] | other results
 |  | C[C@@]1(CO)[C@H](O)CC[C@@]2(C)[C@H]1CC[C@H]1C[C@@H]3C[C@@]12CC[C@]3(O)CO [Aphidicolin, reference compound] | > 5000 nM | 390 ± 110 nM |  |  | EC50 ([1]; pH 4.9, 144 h, 32°C, read-out: L. major axenic amastigote-like EC50 (AVE±SD) Confirmation Alamar Blue): 50 ± 10 nM; growth inhibitory activity in axenic amastigote-like assay [1]: comparable to amphotericin B; EC50 [2]: > 50000 nM; EC50 [3]: > 50000 nM; EC50 [4]: > 50000 nM; EC50 ([5]; Homo sapiens, A549, 44–46 h, alamar blue, read-out: A549 EC50 (AVE±SD)): > 50000 nM; EC50 [6]: > 50000 nM; EC50 ([7]; Leishmania major, 48 h, compounds from commercial supplier, 44 h + 4 h alamar blue, 28°C, read-out: L. major promastigote EC50 (AVE±SD) Confirmation Alamar Blue): 220 ± 20 nM; EC50 ([7]; Leishmania major, Table S1, PMLSC library samples, 10-point 0.01–5.00 µM, read-out: EC50 Ave ± SD, Lm): 121 ± 20 nM
 |  | Cc1[nH]c2c(Cl)cccc2c(=O)c1CN1CCCC1 [CID 728862] | > 5000 nM | 1770 ± 120 nM | 4300 ± 800 nM | 392 ± 50 nM | 
 |  | CCN(CC)CCN(C)C1CCC(c2ccccc2)CC1 (stereo not drawn) [CID 742546] | > 5000 nM | 430 ± 300 nM | > 50000 nM | 827 ± 116 nM | 
 |  | Cc1cc(C)nc(/N=C2\SNSC2Cl)c1 (stereo not drawn) [CID 757789] | > 5000 nM | 1940 ± 150 nM | 3200 ± 800 nM | 353 ± 25 nM | 
 |  | COc1cccc2c(=O)c(C/C=C(/C)Cl)c(C)[nH]c12 [CID 760847] | > 5000 nM | 200 ± 50 nM | 210 ± 90 nM | 108 ± 23 nM | growth inhibitory activity in axenic amastigote-like assay [1]: comparable to amphotericin B
 |  | Cc1ccc(S(=O)(=O)c2ccc(Oc3cccc(C)c3)cc2)cc1 [CID 786799] | > 5000 nM | 2220 ± 110 nM | 3600 ± 130 nM | 180 ± 35 nM | 
 |  | Cc1ccc(OCCCCn2ccnc2)c(Cl)c1 [CID 2851545] | > 5000 nM | 340 ± 480 nM | 11700 ± 500 nM | 133 ± 35 nM | 
 |  | O=C1C2ON(c3ccc(Br)cc3)C(c3ccccn3)C2C(=O)N1C1CCCCC1 (stereo not drawn) [CID 2946668] | > 5000 nM | 350 ± 60 nM | 1200 ± 400 nM | 515 ± 66 nM | 
> 5000 nM | 137 ± 40 nM | c1ccc2c(c1)OC(CCCN1CCCCC1)c1ccccc1S2 (stereo not drawn) [CID 9549148] |  |  |  |  | 
> 5000 nM | 50 ± 0.1 nM | COC(=O)c1ccc2c(c1)C(C)(C)C(/C=C/c1ccc(OC)c(OC)c1OC)=[N+]2C [CID 9550329] |  |  |  |  | 
1300 ± 76 nM | 10 ± 2 nM | CCCCCCCCCCCCCCCC[n+]1ccc(/C=N/O)cc1 [CID 11293258] |  |  |  |  | 
> 5000 nM | 142 ± 32 nM | O=C(COc1ccccc1F)NC1CCN(Cc2ccccc2)CC1 [CID 11834429] |  |  |  |  | 
> 5000 nM | 211 ± 47 nM | Cc1ccccc1NC1=C/C(=N\S(=O)(=O)c2cccs2)c2ccccc2C1=O [CID 11834470] |  |  |  |  | 
1140 ± 53 nM | 205 ± 21 nM | CCCCCCCCC[n+]1cccc2c3ccccc3ccc21 [CID 11957314] |  |  |  |  | 
> 5000 nM | 174 ± 32 nM | CC[n+]1c(/C=C/N(C)c2ccccc2)sc2ccc(Cl)cc21.[O-][Cl+3]([O-])([O-])[O-] [CID 11958710] |  |  |  |  | 
> 5000 nM | 746 ± 211 nM | CC(=O)O[C@@H]1C[C@H]2C(C)(C)C(=O)C=C[C@]2(C)[C@H]2CC[C@@]3(C)[C@H](c4ccoc4)OC(=O)[C@H]4O[C@]43[C@@]21C [CID 12004512] |  |  |  |  | 

Structure (SMILES) | EC50 [5, 12] | EC50 [7, 13] | EC50 [5, 9] | EC50 [8] | EC50 [1, 10] | EC50 [7, 11] | other results
C[C@H]1C[C@@H](C)C(=O)[C@@H]([C@H](O)CC2CC(=O)NC(=O)C2)C1 [CID 6604199] | 1900 ± 1400 nM | 5 ± 0.1 nM |  |  |  |  | 
COCCCN1CCN(c2nnc3n2-c2sc(Br)cc2C(c2ccccc2Cl)=NC3)CC1 [CID 11948854] | > 5000 nM | 607 ± 166 nM |  |  |  |  | 
